Assay results taken from patent US6608086B2, “Dihydropyridines and new uses thereof” (Synaptic Pharmaceutical Corporation, priority 1993, dated 2003).
Structures can show the parent of a compound that is named as a salt. Where two headings read alike, the source gives them in different places.

Assays:
[1] = molecular target: T1, α1A Human Adrenergic Receptor (Homo sapiens, UniProt P25100); assay: Radioligand binding, [3H]prazosin, cloned human α1A adrenergic receptor
T1 construct: The entire coding region of α1A (1719 bp); expressed in transfected cells
T1 sequence (P25100 1-572): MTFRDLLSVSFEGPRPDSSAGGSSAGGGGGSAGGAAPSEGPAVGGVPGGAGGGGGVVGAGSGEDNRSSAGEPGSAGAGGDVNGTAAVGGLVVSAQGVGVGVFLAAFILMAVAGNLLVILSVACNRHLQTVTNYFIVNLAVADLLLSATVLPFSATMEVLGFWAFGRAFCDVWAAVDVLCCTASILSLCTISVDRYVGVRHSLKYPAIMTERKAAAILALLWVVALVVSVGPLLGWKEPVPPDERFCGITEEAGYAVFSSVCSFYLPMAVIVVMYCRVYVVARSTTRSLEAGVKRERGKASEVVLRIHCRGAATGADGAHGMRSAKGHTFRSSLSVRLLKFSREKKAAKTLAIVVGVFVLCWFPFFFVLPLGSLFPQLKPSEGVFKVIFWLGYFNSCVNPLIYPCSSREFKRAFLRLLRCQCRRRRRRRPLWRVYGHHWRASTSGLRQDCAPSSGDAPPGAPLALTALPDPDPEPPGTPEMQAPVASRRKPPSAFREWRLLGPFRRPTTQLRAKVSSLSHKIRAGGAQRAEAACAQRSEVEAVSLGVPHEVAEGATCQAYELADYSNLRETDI
Method in brief: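 Competition binding used membrane preparations of transfected LM(tk−) cells and the α1 antagonist [3H]prazosin at 0.5 nM, incubated 20 min at 37° C in Tris-HCl buffer, pH 7.5.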

[2] = molecular target: T2, α2B receptor (Homo sapiens, UniProt P18089); assay: Competition binding, [3H]rauwolscine, human α2B receptor; settings: [3H]rauwolscine
T2 construct: host or cells: LM(tk-) cells, line L-NGC-α2B
T2 sequence (P18089 1-450): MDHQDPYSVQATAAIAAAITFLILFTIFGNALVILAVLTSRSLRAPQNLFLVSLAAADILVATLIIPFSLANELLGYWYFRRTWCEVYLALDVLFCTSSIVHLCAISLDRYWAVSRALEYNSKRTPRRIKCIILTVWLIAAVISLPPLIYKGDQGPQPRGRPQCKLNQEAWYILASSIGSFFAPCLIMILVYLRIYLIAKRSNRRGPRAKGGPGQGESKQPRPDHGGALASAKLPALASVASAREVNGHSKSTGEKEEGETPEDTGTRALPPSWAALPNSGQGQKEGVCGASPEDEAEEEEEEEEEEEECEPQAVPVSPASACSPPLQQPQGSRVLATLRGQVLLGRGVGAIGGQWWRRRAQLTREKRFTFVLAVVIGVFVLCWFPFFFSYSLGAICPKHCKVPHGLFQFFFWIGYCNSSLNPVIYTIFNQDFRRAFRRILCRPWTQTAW
From the text: (§1) The protocols for these experiments are given below.
(§2) α2 Human Adrenergic Receptors:
(§3) To determine the potency of […], antagonists at the α2 receptors, LM(tk−) cell lines stably transfected with the genes encoding the α2A, α2B, and α2C receptors were used. The cell line expressing the α2A receptor is designated L-α2A, and was deposited on Nov. […] The cell line expressing the α2B receptor is designated L-NGC-α2B, and was deposited on Oct. […] The cell line expressing the α2C receptor is designated L-α2C, and was deposited on Nov. […] Cell lysates were prepared as described above (see Radioligand Binding Assays), and suspended in 25 mM glycylglycine buffer (pH 7.6 at room temperature). Equilibrium competition binding assay were performed using [3H]rauwolscine (0.5 nM), and nonspecific binding was determined by incubation with 10 μM phentolamine. The bound radioligand was separated by filtration through GF/B filters using a cell harvester.

[3] = molecular target: T3, L-type calcium channel (Rattus norvegicus, UniProt P22002); assay: Competition binding of [3H]nitrendipine to membrane fragments of rat cardiac muscle; settings: [3H]nitrendipine, rat cardiac muscle membranes
T3 construct: membrane fragments of rat cardiac muscle; from tissue; host or cells: rat cardiac muscle membranes

[4] = molecular target: human prostatic tissue; assay: In vitro human prostate model: block of phenylephrine-induced contraction of human prostatic tissue; format: cell-based; settings: In Vitro Human Prostate Model; phenylephrine-induced contraction
From the text: The protocol for these experiments is given below.
Functional Properties of α1 Antagonists in the Human Prostate
The efficacy of α1 adrenergic antagonists for the treatment of benign prostatic hyperplasia (BPH) is related to their ability to elicit relaxation of prostate smooth muscle. An index of this efficacy can be obtained by determining the potency of al antagonists to antagonize the contraction of human prostatic tissue induced by an α1 agonist “in vitro”. Furthermore, by comparing the potency of subtype selective α1 antagonists in binding assays using human α1 receptors with their potency to inhibit agonist-induced smooth muscle contraction, it is possible to determine which of the α1 adrenergic receptor subtypes is involved in the contraction of prostate smooth muscle.
Prostatic adenomas were obtained at the time of surgery from patients with symptomatic BPH. […] The baths were maintained at 37° C. and continuously oxygenated with 5% CO2 and 95% O2. Isometric tension was measured with a Grass Instrument FT03 force transducer interfaced with a computer. Tissue strips were contracted with varying concentrations of phenylephrine after incubating for 20 minutes in the absence and presence of at least three different concentrations of antagonist. Dose-response curves for phenylephrine were constructed, and the antagonist potency (pA2) was estimated by the dose-ratio method. The concentration of some antagonists in the tissue bath was assessed by measuring the displacement of [3H]prazosin by aliquots of the bath medium, using membrane preparations of the cloned human α1C receptor. This control was necessary to account for losses of antagonist due to adsorption to the tissue bath and/or metabolism during the time the antagonists were equilibrated with the prostate tissue.

[5] = test system: canine prostate; assay: In vivo dog prostate model: inhibition of phenylephrine-induced increase in urethral pressure in anesthetized dogs; settings: In Vivo Dog Prostate Model; phenylephrine-induced contraction, urethral pressure
Description: Protocol for In Vivo Evaluation of Compounds in Canine Prostate
Adult male mongrel dogs more than one year of age were chosen for the model. After induction of general anesthesia using sodium pentobarbital (25 mg/Kg i.v.), the animals were intubated and allowed to breathe spontaneously. An arterial catheter was inserted via the femoral artery to monitor blood pressure and i.v. line was inserted into the leg for fluid and drug administration. A constant saline infusion was maintained at 40 to 50 mL/h. Next, a seven cm lower abdominal incision was made one cm lateral to the penis.
The bladder, prostate and a short segment of urethra were identified and isolated, without damage to the nerves or blood vessels. A cystotomy incision was made through which the pressure catheter was inserted and positioned in the prostatic urethra. The cystotomy was not closed, but the wound edges were sutured to stop bleeding. The tip of the catheter was positioned just distal to the prostate and secured in place with an O-silk tie around the urethra. A second holding suture at the bladder neck secured the catheter in place.
Fluid, either water or saline, was pumped by a Harvard infusion pump at 0.1 mL/min through a Gould pressure transducer into the catheter. The fluid exists at a port in the catheter which is in the prostatic urethra. Occlusion of the port, by contraction of the prostate, blocks the flow and a pressure wave is created. This pressure is transmitted back through the catheter to the transducer which is attached to a Gould recorder. Squeezing the prostate gland caused an increase in urethral pressure which verified the correct position in the urethra.
The compounds were tested as follows: A dose response curve was first generated for phenylephrine alone, in doses ranging from one μg/Kg to 50 μg/Kg. The absolute rise in urethral pressure was recorded for each dose and the next dose given when the urethral pressure returned to baseline. Phenylephrine dose response curves were generated in all animals tested. Increasing doses of compounds were then given, and the phenylephrine dose response curve repeated in the prepense of each dose of the compound. No animal received more than one compound; four animals were used to test each compound. To test for tachyphylaxis, four separate dogs were challenged with repeated phenylephrine doses for six hrs, the usual length of each experiment. From the dose-effect data, the inhibition constant (Ki) and the median-effect dose (ED50) were calculated. Both the Ki and ED50 values given are calculated by using microcomputer software and an IBM-PC.

[6] = molecular target: T4, α2A receptor (Homo sapiens, UniProt P08913); assay: Competition binding, [3H]rauwolscine, human α2A receptor; settings: [3H]rauwolscine
T4 construct: host or cells: LM(tk-) cells, line L-α2A
T4 sequence (P08913 1-465): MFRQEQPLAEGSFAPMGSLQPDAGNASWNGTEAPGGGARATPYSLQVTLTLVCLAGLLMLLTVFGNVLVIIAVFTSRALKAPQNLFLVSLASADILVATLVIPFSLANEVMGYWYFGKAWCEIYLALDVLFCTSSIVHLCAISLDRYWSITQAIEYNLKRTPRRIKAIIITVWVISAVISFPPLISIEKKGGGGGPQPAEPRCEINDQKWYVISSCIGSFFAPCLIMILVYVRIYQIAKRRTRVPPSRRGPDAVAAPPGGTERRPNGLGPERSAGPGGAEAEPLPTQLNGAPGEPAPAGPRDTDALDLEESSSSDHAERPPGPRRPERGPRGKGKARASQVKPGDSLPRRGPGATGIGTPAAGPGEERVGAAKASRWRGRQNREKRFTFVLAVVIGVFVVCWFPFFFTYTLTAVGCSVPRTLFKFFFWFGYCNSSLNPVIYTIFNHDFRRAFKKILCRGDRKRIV
From the text: as §1, §2, §3

[7] = molecular target: T5, α2C receptor (Homo sapiens, UniProt P18825); assay: Competition binding, [3H]rauwolscine, human α2C receptor; settings: [3H]rauwolscine
T5 construct: host or cells: LM(tk-) cells, line L-α2C
T5 sequence (P18825 1-462): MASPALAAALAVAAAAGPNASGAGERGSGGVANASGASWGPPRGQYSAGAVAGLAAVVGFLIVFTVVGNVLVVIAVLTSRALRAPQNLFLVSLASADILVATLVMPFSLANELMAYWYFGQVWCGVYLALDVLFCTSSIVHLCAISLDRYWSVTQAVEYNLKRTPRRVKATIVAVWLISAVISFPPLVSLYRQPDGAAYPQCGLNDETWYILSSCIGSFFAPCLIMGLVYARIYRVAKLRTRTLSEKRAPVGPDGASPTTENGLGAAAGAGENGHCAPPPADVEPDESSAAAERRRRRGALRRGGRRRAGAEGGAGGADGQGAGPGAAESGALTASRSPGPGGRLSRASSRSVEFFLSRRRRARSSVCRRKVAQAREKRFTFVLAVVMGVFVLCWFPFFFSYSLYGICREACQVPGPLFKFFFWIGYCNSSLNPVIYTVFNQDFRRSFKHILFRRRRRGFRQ
From the text: as §1, §2, §3

[8] = LM(tk-) cell line L-NGC-α2B, SEM and n in lines below
[9] = SEM and n in lines below, read-out: pKi Ca (converted)
[10] = human receptor, LM(tk-) cell lysates, mean, read-out: PKi alpha-2 2a (converted)
[11] = human receptor, LM(tk-) cell lysates, mean, read-out: PKi alpha-2 2b (converted)
[12] = human receptor, LM(tk-) cell lysates, mean, read-out: PKi alpha-2 2c (converted)
[13] = mean, read-out: PKi Ca (converted)

T3 sequence (P22002 whole entry, other chains not shown, the tested form may be a part): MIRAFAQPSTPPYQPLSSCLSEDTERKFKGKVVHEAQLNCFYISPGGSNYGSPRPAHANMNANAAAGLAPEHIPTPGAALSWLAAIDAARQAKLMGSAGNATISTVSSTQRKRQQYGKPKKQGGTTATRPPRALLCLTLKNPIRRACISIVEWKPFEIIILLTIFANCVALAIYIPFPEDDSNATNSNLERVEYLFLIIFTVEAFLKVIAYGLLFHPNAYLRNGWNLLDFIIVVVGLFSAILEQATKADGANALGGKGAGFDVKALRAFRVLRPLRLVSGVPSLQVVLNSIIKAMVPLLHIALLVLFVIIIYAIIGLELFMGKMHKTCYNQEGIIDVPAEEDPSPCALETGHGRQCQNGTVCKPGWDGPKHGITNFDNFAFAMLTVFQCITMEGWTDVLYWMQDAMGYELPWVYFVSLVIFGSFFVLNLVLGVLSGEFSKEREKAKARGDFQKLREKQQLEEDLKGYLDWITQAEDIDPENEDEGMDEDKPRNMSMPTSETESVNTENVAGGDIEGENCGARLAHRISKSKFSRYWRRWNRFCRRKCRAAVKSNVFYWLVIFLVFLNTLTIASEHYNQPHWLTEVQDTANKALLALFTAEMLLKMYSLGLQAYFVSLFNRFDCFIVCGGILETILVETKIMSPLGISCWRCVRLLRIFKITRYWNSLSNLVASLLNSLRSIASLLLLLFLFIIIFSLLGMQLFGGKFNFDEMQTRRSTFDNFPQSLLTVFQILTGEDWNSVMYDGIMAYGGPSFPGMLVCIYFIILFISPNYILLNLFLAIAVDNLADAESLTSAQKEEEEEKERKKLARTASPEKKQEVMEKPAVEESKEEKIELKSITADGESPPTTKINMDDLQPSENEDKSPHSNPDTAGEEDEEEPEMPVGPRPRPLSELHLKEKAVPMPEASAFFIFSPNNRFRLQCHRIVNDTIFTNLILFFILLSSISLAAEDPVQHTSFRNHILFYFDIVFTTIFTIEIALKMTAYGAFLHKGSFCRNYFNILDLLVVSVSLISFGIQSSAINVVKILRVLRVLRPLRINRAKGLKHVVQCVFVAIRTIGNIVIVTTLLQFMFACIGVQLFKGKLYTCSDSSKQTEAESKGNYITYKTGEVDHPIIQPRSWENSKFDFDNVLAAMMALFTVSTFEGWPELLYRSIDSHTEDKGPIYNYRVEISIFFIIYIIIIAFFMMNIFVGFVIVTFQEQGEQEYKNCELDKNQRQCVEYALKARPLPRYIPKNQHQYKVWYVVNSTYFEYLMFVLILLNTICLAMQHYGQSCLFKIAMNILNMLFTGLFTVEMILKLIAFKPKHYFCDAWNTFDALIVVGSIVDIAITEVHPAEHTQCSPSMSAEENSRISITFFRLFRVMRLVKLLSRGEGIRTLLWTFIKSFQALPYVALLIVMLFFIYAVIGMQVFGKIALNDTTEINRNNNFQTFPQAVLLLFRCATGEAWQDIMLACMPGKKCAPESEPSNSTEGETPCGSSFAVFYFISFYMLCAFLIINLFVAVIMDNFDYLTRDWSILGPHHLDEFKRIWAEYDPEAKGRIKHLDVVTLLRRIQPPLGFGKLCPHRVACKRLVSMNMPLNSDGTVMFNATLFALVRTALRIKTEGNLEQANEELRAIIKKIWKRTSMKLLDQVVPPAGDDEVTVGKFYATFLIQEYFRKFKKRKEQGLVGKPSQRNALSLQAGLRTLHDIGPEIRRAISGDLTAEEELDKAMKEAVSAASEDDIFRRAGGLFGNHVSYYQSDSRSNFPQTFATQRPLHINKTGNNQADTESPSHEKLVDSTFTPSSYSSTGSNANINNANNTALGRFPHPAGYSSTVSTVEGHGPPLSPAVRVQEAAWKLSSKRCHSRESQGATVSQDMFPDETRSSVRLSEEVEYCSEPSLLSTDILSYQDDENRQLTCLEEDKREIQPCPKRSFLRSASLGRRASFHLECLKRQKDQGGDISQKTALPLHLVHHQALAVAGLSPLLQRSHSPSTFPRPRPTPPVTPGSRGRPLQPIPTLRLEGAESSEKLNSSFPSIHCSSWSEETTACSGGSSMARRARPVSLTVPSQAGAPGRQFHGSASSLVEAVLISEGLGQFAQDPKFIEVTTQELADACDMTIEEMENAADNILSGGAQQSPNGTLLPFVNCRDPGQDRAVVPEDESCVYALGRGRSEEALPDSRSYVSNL
T3 sequence (P54290 25-944 partner limits assumed, other chains not shown): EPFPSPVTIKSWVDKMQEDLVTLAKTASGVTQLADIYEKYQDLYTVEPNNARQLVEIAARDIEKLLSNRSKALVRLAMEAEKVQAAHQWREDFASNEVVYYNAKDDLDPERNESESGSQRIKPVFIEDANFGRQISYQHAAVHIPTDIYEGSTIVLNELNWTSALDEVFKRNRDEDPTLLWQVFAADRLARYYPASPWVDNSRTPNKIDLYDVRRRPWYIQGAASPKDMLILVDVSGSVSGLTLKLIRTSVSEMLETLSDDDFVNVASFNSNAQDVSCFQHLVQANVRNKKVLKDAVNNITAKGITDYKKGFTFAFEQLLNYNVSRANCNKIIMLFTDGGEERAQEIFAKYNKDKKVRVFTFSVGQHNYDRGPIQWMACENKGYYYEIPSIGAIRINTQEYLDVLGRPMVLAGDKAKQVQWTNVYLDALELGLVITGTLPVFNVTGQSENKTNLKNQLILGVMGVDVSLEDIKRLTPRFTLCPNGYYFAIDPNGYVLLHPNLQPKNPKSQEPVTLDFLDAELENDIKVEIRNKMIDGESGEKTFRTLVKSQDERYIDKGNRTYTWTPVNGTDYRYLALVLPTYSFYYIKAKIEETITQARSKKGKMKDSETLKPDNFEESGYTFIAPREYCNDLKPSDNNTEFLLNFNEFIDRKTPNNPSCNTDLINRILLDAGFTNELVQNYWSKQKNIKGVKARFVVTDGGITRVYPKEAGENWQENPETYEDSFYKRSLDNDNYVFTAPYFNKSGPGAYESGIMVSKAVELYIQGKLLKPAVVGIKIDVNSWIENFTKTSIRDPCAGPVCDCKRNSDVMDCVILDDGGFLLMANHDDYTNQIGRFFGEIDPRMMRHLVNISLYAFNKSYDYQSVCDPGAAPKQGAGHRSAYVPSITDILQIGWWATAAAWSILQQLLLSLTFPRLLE
T3 sequence (P54290 945-1091 partner limits assumed, other chains not shown): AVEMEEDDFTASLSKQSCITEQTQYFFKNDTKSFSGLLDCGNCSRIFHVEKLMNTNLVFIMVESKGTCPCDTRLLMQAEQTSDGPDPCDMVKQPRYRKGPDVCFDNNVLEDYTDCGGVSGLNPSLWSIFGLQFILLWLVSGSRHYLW

With `CC1=C(C(N)=O)C(c2ccc([N+](=O)[O-])cc2)C(C(=O)NCCCN2CCC(c3ccccc3)(c3ccccc3)CC2)=C(C)N1` (racemic) [(±)-2] the “pKi alpha-1 1a” value [1] was 6.22, the “pKi alpha-2 2b” value [2, 8] was 6.38 and the Ki [3, 9] was 200 µM.

For `COC(=O)C1=C(C)NC(C)=C(C(=O)NCCCN2CCC(c3ccccc3)(c3ccccc3)CC2)C1c1ccc([N+](=O)[O-])cc1` (racemic) [(±)-93, hydrochloride hydrate], the pKi [4] was 7.28 ± 0.4 and the Ki [5] was 7.6 nmol/kg.

With `CCOC(=O)C1(c2ccccc2)CCN(CCCNC(=O)C2=C(C)NC(C)=C(C(C)=O)C2c2ccc([N+](=O)[O-])cc2)CC1` (racemic) [Example 202, 5-Acetyl-1,4-dihydro-2,6-dimethyl-3-{N-[3-(4-ethoxycarbonyl-4-phenylpiperidin-1-yl)propyl]}carboxamido-4-(4-nitrophenyl)pyridine] the Ki [6, 10] was 4.47 µM, the Ki [2, 11] was 0.912 µM and the Ki [7, 12] was 2.14 µM. The Ki [3, 13] was 263 µM and the melting point was 89 to 90 °C.

For `CC1=C(C(N)=O)C(c2ccc([N+](=O)[O-])cc2)C(C(=O)NCCCN2CCC(c3ccccc3)(c3ccccc3)CC2)=C(C)N1` (single isomer, unassigned; (+)) [(+)-2], the “pKi alpha-1 1a” value ([1]; [3H]prazosin, cloned human receptor in LM(tk-) cell membranes, SEM and n in lines below) was 6.40, the “pKi alpha-2 2b” value [2, 8] was 6.40 and the “pKi Ca” value ([3]; SEM and n in lines below) was 4.11.

In the case of `CC1=C(C(N)=O)C(c2ccc([N+](=O)[O-])cc2)C(C(=O)NCCCN2CCC(c3ccccc3)(c3ccccc3)CC2)=C(C)N1` (single isomer, unassigned; (-)) [(−)-2], the “pKi alpha-1 1a” value [1] is reported as 6.46, the “pKi alpha-2 2b” value [2, 8] is reported as 6.56 and the Ki [3, 9] is reported as 1820 µM.

`CNC(=O)C1=C(C)NC(C)=C(C(=O)NCCCN2CCC(c3ccccc3)CC2)C1c1ccc([N+](=O)[O-])cc1` (centres unmarked) [Example 56, 1,4-Dihydro-2,6-dimethyl-5-(N-methyl) carboxamido-4-(4-nitrophenyl)-3-{N-[3-(4-phenylpiperidin-1-yl)propyl]}carboxamidopyridine hydrochloride hemihydrate] gave a Ki ([6]; LM(tk-) cell line L-α2A, SEM and n in lines below, read-out: pKi alpha-2 2a (converted)) of 0.269 µM, a Ki ([2]; LM(tk-) cell line L-NGC-α2B, SEM and n in lines below, read-out: pKi alpha-2 2b (converted)) of 0.129 µM and a Ki ([7]; LM(tk-) cell line L-α2C, SEM and n in lines below, read-out: pKi alpha-2 2c (converted)) of 0.186 µM. For the same compound, the Ki [3, 9] was 6.46 µM.

Compound `COC(=O)C1(c2ccccc2)CCN(CCCNC(=O)C2=C(C)NC(C)=C(C(N)=O)C2c2ccc([N+](=O)[O-])cc2)CC1` (centres unmarked) [Example 198, 5-Carboxamido-1,4-dihydro-2,6-dimethyl-3-{N-[3-(4-methoxycarbonyl-4-phenylpiperidin-1-yl)propyl]}carboxamido-4-(4-nitrophenyl)pyridine] has a Ki [6, 10] of 1.12 µM, a Ki [2, 11] of 1.07 µM and a Ki [7, 12] of 2.45 µM. The Ki [3, 13] was 178 µM and the melting point was 120 to 121 °C.

In the case of `COC(=O)C1(c2ccccc2)CCN(CCCNC(=O)C2=C(C)NC(C)=C(C(C)=O)C2c2ccc([N+](=O)[O-])cc2)CC1` (centres unmarked) [Example 201, 5-Acetyl-1,4-dihydro-2,6-dimethyl-3-{N-[3-(4-methoxycarbonyl-4-phenylpiperidin-1-yl)propyl]}carboxamido-4-(4-nitrophenyl)pyridine], the Ki [6, 10] is reported as 4.47 µM, the Ki [7, 12] is reported as 3.24 µM and the Ki [3, 13] is reported as 67.6 µM. The melting point was 94 to 95 °C.
